Entries after “also recorded” stand apart in the source; their conditions may differ.
Tests used:
[1] = tested on: blood pressure of anesthetized Sprague-Dawley IGS male rats; experiment: Hypotensive activity in anesthetized rats, invasive blood pressure measurement after intravenous administration; format: in vivo, rat; conditions: for Hypotensive activity (dose/rat) 10 nmol / Hypotensive activity (dose/rat) 30 nmol: intravenous; for Hypotensive activity (dose/rat) 10 nmol: 10 nmol/rat; for Hypotensive activity (dose/rat) 30 nmol: 30 nmol/rat
[2] = tested on: blood pressure of awake C57BL/6 mice; experiment: Hypotensive activity on awake mice (tail cuff, systolic blood pressure); format: in vivo, mouse; conditions: caudal vein, 0.1 and 1 mg/kg, FIG. 2, listed as HC021-007
Protocol: A C57BL/6 mice with a body weight of 30 to 40 g (Charles River Laboratories Japan, Inc.) were each placed in a retaining appliance of a non-preheating, non-invasive blood pressure monitor for mice and rats (MODEL MK-2000; Muromachi Kikai Co., Ltd.), and a cuff-pulse sensor was then attached to the root of the tail. After confirming that the blood pressure of each mouse had been stable, the mouse was subjected to the experiment.
A peptide solution was prepared by diluting each peptide with a normal saline, depending on the dose. In the case of the dose of 0.1 mg/kg, a 0.02 mg/mL peptide solution was prepared. In the case of the dose of 1 mg/kg, a 0.2 mg/mL peptide solution was prepared. The amount of the solution to be administered was set at 5 mL/kg. As a positive control, a human atrial natriuretic peptide (hANP) was used. As a negative control, a normal saline was used. Each peptide was administered via the caudal vein using a syringe with a 29G needle. Three and ten minutes after the administration, the systolic blood pressure and the heart rate were measured.

[3] = tested on: blood pressure of awake Sprague-Dawley IGS male rats; experiment: Hypotensive activity on awake rats; format: in vivo, rat; set-up: key to Hypotensive activity (dose/rat) 10 nmol / Hypotensive activity (dose/rat) 30 nmol: Extremely strong activity (+++): A decrease in systolic blood pressure is 30 mmHg or more, and the time required for recovery is 5 minutes or more.; Strong activity (++): A decrease in systolic blood pressure is 20 mmHg or more and less than 30 mmHg, or the time required for recovery is less than 5 minutes.; Activity observed (+): A decrease in systolic blood pressure is less than 20 mmHg.; Activity not observed (−)
Protocol: 50 mg/kg pentobarbital sodium was intraperitoneally administered to 8- to 10-week-old Sprague-Dawley IGS male rats (Charles River Laboratories Japan, Inc.) for anesthesia. Thereafter, a jugular vein cannula (Silascon 0.5-1.0) was inserted into each rat for use in peptide administration, and a carotid artery cannula (PE50) was inserted into each rat for use in the measurement of blood pressure. At least 3 hours after the surgery, it was confirmed that the rats were awoken from the anesthesia based on general conditions such as the posture, respiration, and the like of the rats. Thereafter, the rats were subjected to the experiment.
The carotid artery cannula was connected with a pressure transducer (PE23XL; manufactured by Nihon Kohden Corporation), and an apparatus formed by incorporating a blood pressure measurement unit (AP-641G; manufactured by Nihon Kohden Corporation) and an instantaneous heart rate measurement unit (AT-601G; manufactured by Nihon Kohden Corporation) into a multi-purpose preamplifier (RP-6004; manufactured by Nihon Kohden Corporation) was used to record the blood pressure and heart rate of each rat. The blood pressure was calibrated using a mercury manometer included in a stand-type electromanometer (MP-25S; manufactured by Nihon Kohden Corporation). The recording paper was adjusted, such that 20 mm or 40 mm on the recording paper corresponded to 100 mmHg. A solvent in which each peptide had been dissolved was used as a negative control in blood pressure fluctuation.
Each peptide was dissolved in a concentration of 1 mM in a 5% mannitol solution to prepare a peptide solution. Thereafter, depending on dose, it was diluted with a 5% mannitol solution. In the case of the dose of 10 nmol/rat, a 1 mM peptide solution was 30 times diluted, and 300 μL of the diluted solution was administered. In the case of the dose of 30 nmol/rat, a 1 mM peptide solution was 10 times diluted, and 300 μl of the diluted solution was administered. In the case of the dose of 100 nmol/rat, a 1 mM peptide solution was 3 times diluted, and 300 μL of the diluted solution was administered. Each peptide was intravenously administered via the jugular vein cannula, and the systolic blood pressure, diastolic blood pressure, and heart rate were then measured.
The definition of the strength of hypotensive activity was the same as that of Example 3.

## ATVRNEDKWKPLNNPRNRDLFFRRLQAYFK-amide (C-terminal amide) [Compound 5]
[1]; Table 1, anesthetized rats
  Hypotensive activity (dose/rat) 10 nmol: ++ (Strong activity (++): A decrease in systolic blood pressure is 20 mmHg or more and less than 30 mmHg, or the time required for recovery is less than 5 minutes.)
  Hypotensive activity (dose/rat) 30 nmol: +++ (Extremely strong activity (+++): A decrease in systolic blood pressure is 30 mmHg or more, and the time required for recovery is 5 minutes or more.)
[1]; Table 2, anesthetized rats
  Hypotensive activity (dose/rat) 10 nmol: ++ (Strong activity (++): A decrease in systolic blood pressure is 20 mmHg or more and less than 30 mmHg, or the time required for recovery is less than 5 minutes.)
  Hypotensive activity (dose/rat) 30 nmol: +++ (Extremely strong activity (+++): A decrease in systolic blood pressure is 30 mmHg or more, and the time required for recovery is 5 minutes or more.)
[1]; Table 3, anesthetized rats
  Hypotensive activity (dose/rat) 10 nmol: ++ (Strong activity (++): A decrease in systolic blood pressure is 20 mmHg or more and less than 30 mmHg, or the time required for recovery is less than 5 minutes.)
  Hypotensive activity (dose/rat) 30 nmol: +++ (Extremely strong activity (+++): A decrease in systolic blood pressure is 30 mmHg or more, and the time required for recovery is 5 minutes or more.)
[1]; anesthetized rats, 10, 30, 100 nmol/rat
  dose dependence of hypotensive activity: enhanced their hypotensive activity in a dose-dependent manner
[1]; anesthetized rats, Table 1 and FIG. 1, 10 or 30 nmol/rat, listed as HC021-007
  hypotensive activity (in words): observed to have a hypotensive activity; also recorded: act to lower the blood pressure of rats
[2]
  hypotensive activity (in words), change in systolic blood pressure: exhibited a hypotensive activity even on the awake mice; also recorded: lower the blood pressure of awake mice
[3]
  hypotensive activity (in words): observed to have a hypotensive activity even on the awake rats
[3]; Table 4, intravenous, 10 nmol/rat
  Hypotensive activity (dose/rat) 10 nmol: −
[3]; Table 4, intravenous, 30 nmol/rat
  Hypotensive activity (dose/rat) 30 nmol: ++ (Strong activity (++): A decrease in systolic blood pressure is 20 mmHg or more and less than 30 mmHg, or the time required for recovery is less than 5 minutes.)
[3]; Table 4, intravenous, 100 nmol/rat
  Hypotensive activity (dose/rat) 100 nmol: +++ (Extremely strong activity (+++): A decrease in systolic blood pressure is 30 mmHg or more, and the time required for recovery is 5 minutes or more.)

— patent US20110039783A1, “PEPTIDE HAVING HYPOTENSIVE ACTIVITY” (DAIICHI SANKYO COMPANY LIMITED, priority 2007, published 2011)
